Data taken from article PMC4407702 (International journal of pharmaceutics, 2011).
≈ marks a conversion by molar mass, not a printed value. Where “and” joins values, the source holds several entries; their conditions need not be identical. Identical values can stand only once. Like-named read-outs stand apart in the source and are kept apart here.

Assays:
Aqueous solubility study = assay type: physicochemical; settings: distilled deionized water, 25 °C, thermodynamic from solid
Caco-2 cell monolayers [1] = settings: ref Ucpinar and Stavchansky, 2003; cited from earlier work
[2] = tested on: MDCK-MDR1 cell monolayers; settings: ref Jain et al., 2005; cited from earlier work
SVCT [3] = biological target: SVCT (Canis lupus familiaris, UniProt A8CX01); assay: Inhibition of [14C]AA uptake in MDCK-MDR1 cells; assay type: cell-based, canine; settings: 200 μM unlabeled compound, [14C]AA 23.5 μM
Sequence of SVCT (Canis lupus familiaris, UniProt A8CX01) (A8CX01 1-605): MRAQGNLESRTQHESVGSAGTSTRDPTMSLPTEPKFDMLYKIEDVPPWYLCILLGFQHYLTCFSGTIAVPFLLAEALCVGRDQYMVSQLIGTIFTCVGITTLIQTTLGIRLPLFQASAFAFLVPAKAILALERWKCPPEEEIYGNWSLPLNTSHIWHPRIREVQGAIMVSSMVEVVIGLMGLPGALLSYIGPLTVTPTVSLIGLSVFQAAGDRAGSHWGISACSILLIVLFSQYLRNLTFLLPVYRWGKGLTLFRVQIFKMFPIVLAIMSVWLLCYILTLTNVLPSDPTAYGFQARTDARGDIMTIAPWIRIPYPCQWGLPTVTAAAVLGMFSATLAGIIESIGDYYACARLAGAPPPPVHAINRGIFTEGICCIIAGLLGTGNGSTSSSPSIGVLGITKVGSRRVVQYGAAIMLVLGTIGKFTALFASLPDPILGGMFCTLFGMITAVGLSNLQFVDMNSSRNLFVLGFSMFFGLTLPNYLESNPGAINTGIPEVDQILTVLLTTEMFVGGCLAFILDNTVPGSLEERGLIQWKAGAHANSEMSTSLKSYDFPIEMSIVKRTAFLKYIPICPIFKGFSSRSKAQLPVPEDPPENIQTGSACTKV

SVCT [4] = biological target: SVCT (Homo sapiens, UniProt Q9UHI7); assay: Inhibition of [14C]AA uptake in Caco-2 cells; assay type: cell-based; settings: 200 μM unlabeled compound, [14C]AA 23.5 μM
Sequence of SVCT (Homo sapiens, UniProt Q9UHI7) (Q9UHI7 whole entry): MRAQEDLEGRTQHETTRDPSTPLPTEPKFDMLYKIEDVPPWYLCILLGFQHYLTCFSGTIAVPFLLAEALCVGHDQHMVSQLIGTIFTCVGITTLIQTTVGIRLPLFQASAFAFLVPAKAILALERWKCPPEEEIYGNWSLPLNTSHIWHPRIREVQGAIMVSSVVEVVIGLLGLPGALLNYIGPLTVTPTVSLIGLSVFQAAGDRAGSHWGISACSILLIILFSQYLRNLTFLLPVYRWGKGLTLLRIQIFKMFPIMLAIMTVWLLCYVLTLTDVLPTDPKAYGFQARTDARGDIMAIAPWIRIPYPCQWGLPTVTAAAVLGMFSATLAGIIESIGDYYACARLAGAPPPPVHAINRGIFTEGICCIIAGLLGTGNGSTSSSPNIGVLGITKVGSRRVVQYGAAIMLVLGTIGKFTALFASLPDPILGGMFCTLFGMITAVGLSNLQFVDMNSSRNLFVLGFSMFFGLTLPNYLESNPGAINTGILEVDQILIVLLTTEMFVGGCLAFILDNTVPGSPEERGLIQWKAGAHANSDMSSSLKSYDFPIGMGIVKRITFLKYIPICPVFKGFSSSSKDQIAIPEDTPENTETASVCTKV

[5] = Transepithelial transport across Caco-2 cell monolayers; assay type: in vitro ADME; settings: human, Caco-2
Caco-2 cell monolayers [6] = assay: as above; assay type: in vitro ADME
[7] = Caco-2, [14C]AA 23.5 μM or AA-Su-Saq 25 μM donor, 3 h

Row | SMILES | solubility at 24 h (Aqueous solubility study) [µM] | P(A–B) (Caco-2 cell monolayers [1]) | P(B–A) (Caco-2 cell monolayers [1]) | P(A–B) [2] | P(B–A) [2] | PA–B [2] [×10⁻⁶ cm/s] | Uptake of [14C]AA diminished (inhibition) (SVCT [3]) [%] | Inhibition of [14C]AA uptake (SVCT [4]) [%] | Papp A→B at 3 h, 23.5 μM [5] [×10⁻⁶ cm/s] | Papp B→A at 3 h, 23.5 μM [5] [×10⁻⁶ cm/s] | P(A–B) (Caco-2 cell monolayers [6]; [7]) | P(B–A) (Caco-2 cell monolayers [6]; [7]) | PA–B and PB–A in Caco-2 cells higher than in MDCK-MDR1 cells (Caco-2 cell monolayers [6]; Caco-2 vs MDCK-MDR1)
1 | CC(C)(C)NC(=O)[C@@H]1C[C@@H]2CCCC[C@@H]2CN1C[C@@H](O)[C@H](Cc1ccccc1)NC(=O)[C@H](CC(N)=O)NC(=O)c1ccc2ccccc2n1 [Saq, Saquinavir] | 1750 ± 290 (≈ 1170 µg/mL) | 0.93 cm/s, × 10^−6 and 0.93 ±0.10 cm/s, × 10^−6 | 20.39 ± 1.53 cm/s, × 10^−6 | 0.463 ± 0.025 cm/s, × 10^−6 | 19.9 ± 1.70 cm/s, × 10^−6 | 0.463 | – | – | – | – | – | – | –
2 | O=C1O[C@H]([C@@H](O)CO)C(O)=C1O [AA, L-Ascorbic acid] | – | – | – | – | – | – | 65 | 66 | 17.6 ± 0.39 | 15.5 ± 3.11 | 17.6 ± 0.39 cm/s, × 10^−6 | 15.5 ± 3.11 cm/s, × 10^−6 | about 2 fold
